In US9580444B2, “Polycyclic pyrazolinone derivative and herbicide comprising same as effective component thereof” (priority 2013, dated 2017):

How the values were obtained:
Assay type in all cases: in vivo
[1] = system: Amaranthus viridis (green amaranthus); assay: Test Example-2: herbicidal effect by a soil treatment before weeds are generated under upland field conditions; conditions: application amount 500 g a.i/ha, soil spray treatment before weeds are generated, about 21 days after the treatment, score 0 to 5
Text: (§1) Using the formulation prepared according to the methods described above, the herbicidal effect of the bicyclic pyrazolinone derivative of the invention according to the methods shown in Test Examples below was examined. The herbicidal effect with respect to the test weeds or the phytotoxicity with respect to the test crops was examined according to the following criteria, and evaluated in six stage scores of 0 to 5. A vat having an area of 81 cm^2 and a depth of 3.5 cm was filled with upland soil, then, seeds of Amaranthus viridis (green amaranthus), Chenopodium album (common lambsquarters), and corn were seeded thereto, and the seeds were covered with soil of about 0.5 cm. Next day, a wettable powder or an emulsifiable concentrate of the compound of the present invention prepared according to Formulation Example was diluted, and a spray treatment was uniformly performed on the covered oil so as to be a predetermined dosage. The herbicidal effect with respect to the test weeds and the phytotoxicity with respect to corn about 21 days after the treatment were evaluated according to the evaluation criteria in six stages of 0 to 5 described above.

[2] = system: Chenopodium album (common lambsquarters); assay: as above; conditions: application amount 500 g a.i/ha, soil spray treatment before weeds are generated, about 21 days after the treatment, score 0 to 5
Text: as §1

corn [3] = assay: Test Example-2: phytotoxicity by a soil treatment before weeds are generated under upland field conditions; conditions: application amount 500 g a.i/ha, soil spray treatment before weeds are generated, about 21 days after the treatment, score 0 to 5
Text: as §1

[4] = system: Eleocharis acicularis (needle spikerush); assay: Test Example-1: herbicidal effect by a treatment before weeds are generated under submerged conditions; conditions: 500 g a.i/ha, pre-emergence treatment, about 15 days after treatment, score 0-5
How it was run: (§2)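 Scores (0–5, six stages) reflect visual weed control about 15 days after a same-day water application of the diluted formulated compound to freshly seeded, flooded paddy soil.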

[5] = system: other annual broad leaf weeds (Lindernia procumbens, Rotala indica, Elatine triandra); assay: as above; conditions: 500 g a.i/ha, pre-emergence treatment, about 15 days after treatment, score 0-5
How it was run: as §2

[6] = system: Cyperus difformis (smallflower umbrella plant); assay: as above; conditions: 500 g a.i/ha, pre-emergence treatment, about 15 days after treatment, score 0-5
How it was run: as §2

[7] = system: Monochoria vaginalis (monochoria); assay: as above; conditions: 500 g a.i/ha, pre-emergence treatment, about 15 days after treatment, score 0-5
How it was run: as §2

[8] = system: Scirpus juncoides (bulrush); assay: as above; conditions: 500 g a.i/ha, pre-emergence treatment, about 15 days after treatment, score 0-5
How it was run: as §2

[9] = system: Echinochloa oryzicola (barnyard grass); assay: as above; conditions: 500 g a.i/ha, pre-emergence treatment, about 15 days after treatment, score 0-5
How it was run: as §2

[10] = system: Amaranthus viridis (green amaranthus); assay: Test Example-4: herbicidal effect by a foliage treatment after weeds are generated under upland field conditions; conditions: 500 g a.i/ha, foliage treatment after emergence, about 14 days after treatment, score 0-5
How it was run: (§3)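 Post-emergence foliar treatment: seedlings raised 14 days in watered upland soil are sprayed with the diluted formulation at a predetermined dose, using a spray volume of 4000 L/ha. Effects on weeds and on corn are rated 0–5 roughly two weeks afterwards.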

[11] = system: Abutilon theophrasti (velvetleaf); assay: as above; conditions: 500 g a.i/ha, foliage treatment after emergence, about 14 days after treatment, score 0-5
How it was run: as §3

[12] = system: Chenopodium album (common lambsquarters); assay: as above; conditions: 500 g a.i/ha, foliage treatment after emergence, about 14 days after treatment, score 0-5
How it was run: as §3

corn [13] = assay: Test Example-4: phytotoxicity by a foliage treatment after weeds are generated under upland field conditions; conditions: 500 g a.i/ha, foliage treatment after emergence, about 14 days after treatment, score 0-5
How it was run: as §3

`COc1cc(-c2c(Cl)n3n(c2=O)CCOCC3)c(Cl)cc1Cl` [Example 1-296] was tested, and the “Herbicidal effect Amaranthus viridis” value [1] was 5 (Herbicidal effect/phytotoxicity was 90% or greater), the “Herbicidal effect Chenopodium album” value [2] was 5 (Herbicidal effect/phytotoxicity was 90% or greater) and the “Phytotoxicity Corn” value (corn [3]) was 0 (Herbicidal effect/phytotoxicity was 0% to 10%). The “Herbicidal effect Eleocharis acicularis” value [4] was 5 (Herbicidal effect/phytotoxicity was 90% or greater), the “Herbicidal effect Broadleaf weed” value [5] was 5 (Herbicidal effect/phytotoxicity was 90% or greater) and the “Herbicidal effect Cyperus difformis” value [6] was 5 (Herbicidal effect/phytotoxicity was 90% or greater). The “Herbicidal effect Monochoria vaginalis” value [7] was 5 (Herbicidal effect/phytotoxicity was 90% or greater), the “Herbicidal effect Scirpus juncoides” value [8] was 5 (Herbicidal effect/phytotoxicity was 90% or greater) and the “Herbicidal effect Echinochloa oryzicola” value [9] was 5 (Herbicidal effect/phytotoxicity was 90% or greater).

For `Cc1ccc(Oc2cc(-c3c(Cl)n4n(c3=O)CCCC4)c(F)cc2Cl)c(O)c1` [Compound 3-40], the “Herbicidal effect Amaranthus viridis” value [1] was 5 (Herbicidal effect/phytotoxicity was 90% or greater), the “Herbicidal effect Chenopodium album” value [2] was 5 (Herbicidal effect/phytotoxicity was 90% or greater) and the “Phytotoxicity Corn” value (corn [3]) was 0 (Herbicidal effect/phytotoxicity was 0% to 10%).

For `CS(=O)(=O)Nc1cc(-c2c(Cl)n3n(c2=O)CCCC3)c(F)cc1Cl` [Example 5-35], the “Herbicidal effect Amaranthus viridis” value [1] was 5 (Herbicidal effect/phytotoxicity was 90% or greater), the “Herbicidal effect Chenopodium album” value [2] was 5 (Herbicidal effect/phytotoxicity was 90% or greater) and the “Phytotoxicity Corn” value (corn [3]) was 0 (Herbicidal effect/phytotoxicity was 0% to 10%). The “Herbicidal effect Amaranthus viridis” value [10] was 5 (Herbicidal effect/phytotoxicity was 90% or greater), the “Herbicidal effect Abutilon theophrast” value [11] was 5 (Herbicidal effect/phytotoxicity was 90% or greater) and the “Herbicidal effect Chenopodium album” value [12] was 5 (Herbicidal effect/phytotoxicity was 90% or greater). For the same compound, the “Phytotoxicity Corn” value (corn [13]) was 0 (Herbicidal effect/phytotoxicity was 0% to 10%).

In the case of `CS(=O)(=O)N(c1cc(-c2c(Cl)n3n(c2=O)CCCC3)c(F)cc1Cl)S(C)(=O)=O` [Example 5-71], the “Herbicidal effect Amaranthus viridis” value [1] was 5 (Herbicidal effect/phytotoxicity was 90% or greater), the “Herbicidal effect Chenopodium album” value [2] was 5 (Herbicidal effect/phytotoxicity was 90% or greater) and the “Phytotoxicity Corn” value (corn [3]) was 0 (Herbicidal effect/phytotoxicity was 0% to 10%). For the same compound, the “Herbicidal effect Amaranthus viridis” value [10] was 5 (Herbicidal effect/phytotoxicity was 90% or greater), the “Herbicidal effect Abutilon theophrast” value [11] was 5 (Herbicidal effect/phytotoxicity was 90% or greater) and the “Herbicidal effect Chenopodium album” value [12] was 5 (Herbicidal effect/phytotoxicity was 90% or greater). The “Phytotoxicity Corn” value (corn [13]) was 0 (Herbicidal effect/phytotoxicity was 0% to 10%).

For `CCOC(=O)C(OCC)Oc1ccccc1Oc1cc(-c2c(Cl)n3n(c2=O)CCCC3)c(F)cc1Cl` (centres unmarked) [Compound 3-18], the “Herbicidal effect Amaranthus viridis” value [1] was 5 (Herbicidal effect/phytotoxicity was 90% or greater), the “Herbicidal effect Chenopodium album” value [2] was 5 (Herbicidal effect/phytotoxicity was 90% or greater) and the “Phytotoxicity Corn” value (corn [3]) was 0 (Herbicidal effect/phytotoxicity was 0% to 10%). For the same compound, the “Herbicidal effect Eleocharis acicularis” value [4] was 5 (Herbicidal effect/phytotoxicity was 90% or greater), the “Herbicidal effect Broadleaf weed” value [5] was 5 (Herbicidal effect/phytotoxicity was 90% or greater) and the “Herbicidal effect Cyperus difformis” value [6] was 5 (Herbicidal effect/phytotoxicity was 90% or greater). For the same compound, the “Herbicidal effect Monochoria vaginalis” value [7] was 5 (Herbicidal effect/phytotoxicity was 90% or greater), the “Herbicidal effect Scirpus juncoides” value [8] was 5 (Herbicidal effect/phytotoxicity was 90% or greater) and the “Herbicidal effect Echinochloa oryzicola” value [9] was 5 (Herbicidal effect/phytotoxicity was 90% or greater).

`COc1cc(-c2c(Cl)n3n(c2=O)CCOCC3)c(F)cc1F` [Example 1-89] was tested, and the “Herbicidal effect Amaranthus viridis” value [1] was 5 (Herbicidal effect/phytotoxicity was 90% or greater), the “Herbicidal effect Chenopodium album” value [2] was 5 (Herbicidal effect/phytotoxicity was 90% or greater) and the “Phytotoxicity Corn” value (corn [3]) was 0 (Herbicidal effect/phytotoxicity was 0% to 10%). For the same compound, the “Herbicidal effect Eleocharis acicularis” value [4] was 5 (Herbicidal effect/phytotoxicity was 90% or greater), the “Herbicidal effect Broadleaf weed” value [5] was 5 (Herbicidal effect/phytotoxicity was 90% or greater) and the “Herbicidal effect Cyperus difformis” value [6] was 5 (Herbicidal effect/phytotoxicity was 90% or greater). The “Herbicidal effect Monochoria vaginalis” value [7] was 5 (Herbicidal effect/phytotoxicity was 90% or greater), the “Herbicidal effect Scirpus juncoides” value [8] was 5 (Herbicidal effect/phytotoxicity was 90% or greater) and the “Herbicidal effect Echinochloa oryzicola” value [9] was 5 (Herbicidal effect/phytotoxicity was 90% or greater).

For `C#CCOc1cc(-c2c(Cl)n3n(c2=O)CCCC3)c(F)cc1[N+](=O)[O-]` [Example 1-418], the “Herbicidal effect Amaranthus viridis” value [1] was 5 (Herbicidal effect/phytotoxicity was 90% or greater), the “Herbicidal effect Chenopodium album” value [2] was 5 (Herbicidal effect/phytotoxicity was 90% or greater) and the “Phytotoxicity Corn” value (corn [3]) was 0 (Herbicidal effect/phytotoxicity was 0% to 10%).

With `C#CCOc1cc(-c2c(Cl)n3n(c2=O)CCCCC3)c(F)cc1F` [Example 1-367] the “Herbicidal effect Amaranthus viridis” value [1] was 5 (Herbicidal effect/phytotoxicity was 90% or greater), the “Herbicidal effect Chenopodium album” value [2] was 5 (Herbicidal effect/phytotoxicity was 90% or greater) and the “Phytotoxicity Corn” value (corn [3]) was 0 (Herbicidal effect/phytotoxicity was 0% to 10%). The “Herbicidal effect Eleocharis acicularis” value [4] was 5 (Herbicidal effect/phytotoxicity was 90% or greater), the “Herbicidal effect Broadleaf weed” value [5] was 5 (Herbicidal effect/phytotoxicity was 90% or greater) and the “Herbicidal effect Cyperus difformis” value [6] was 5 (Herbicidal effect/phytotoxicity was 90% or greater). The “Herbicidal effect Monochoria vaginalis” value [7] was 5 (Herbicidal effect/phytotoxicity was 90% or greater), the “Herbicidal effect Scirpus juncoides” value [8] was 5 (Herbicidal effect/phytotoxicity was 90% or greater) and the “Herbicidal effect Echinochloa oryzicola” value [9] was 5 (Herbicidal effect/phytotoxicity was 90% or greater).

For `O=c1c(-c2ccc(Cl)c(OC3CCCC3)c2)c(Cl)n2n1CCCC2` [Example 1-52], the “Herbicidal effect Amaranthus viridis” value [10] was 5 (Herbicidal effect/phytotoxicity was 90% or greater), the “Herbicidal effect Abutilon theophrast” value [11] was 5 (Herbicidal effect/phytotoxicity was 90% or greater) and the “Herbicidal effect Chenopodium album” value [12] was 5 (Herbicidal effect/phytotoxicity was 90% or greater). For the same compound, the “Herbicidal effect Eleocharis acicularis” value [4] was 5 (Herbicidal effect/phytotoxicity was 90% or greater), the “Herbicidal effect Broadleaf weed” value [5] was 5 (Herbicidal effect/phytotoxicity was 90% or greater) and the “Herbicidal effect Cyperus difformis” value [6] was 5 (Herbicidal effect/phytotoxicity was 90% or greater). For the same compound, the “Herbicidal effect Monochoria vaginalis” value [7] was 5 (Herbicidal effect/phytotoxicity was 90% or greater), the “Herbicidal effect Scirpus juncoides” value [8] was 5 (Herbicidal effect/phytotoxicity was 90% or greater) and the “Herbicidal effect Echinochloa oryzicola” value [9] was 5 (Herbicidal effect/phytotoxicity was 90% or greater). The “Phytotoxicity Corn” value (corn [13]) was 0 (Herbicidal effect/phytotoxicity was 0% to 10%).

With `CC(C)=CCOc1cc(-c2c(Cl)n3n(c2=O)CCCC3)c(F)cc1Cl` [Example 1-219] the “Herbicidal effect Amaranthus viridis” value [10] was 5 (Herbicidal effect/phytotoxicity was 90% or greater), the “Herbicidal effect Abutilon theophrast” value [11] was 5 (Herbicidal effect/phytotoxicity was 90% or greater) and the “Herbicidal effect Chenopodium album” value [12] was 5 (Herbicidal effect/phytotoxicity was 90% or greater). The “Herbicidal effect Eleocharis acicularis” value [4] was 5 (Herbicidal effect/phytotoxicity was 90% or greater), the “Herbicidal effect Broadleaf weed” value [5] was 5 (Herbicidal effect/phytotoxicity was 90% or greater) and the “Herbicidal effect Cyperus difformis” value [6] was 5 (Herbicidal effect/phytotoxicity was 90% or greater). For the same compound, the “Herbicidal effect Monochoria vaginalis” value [7] was 5 (Herbicidal effect/phytotoxicity was 90% or greater), the “Herbicidal effect Scirpus juncoides” value [8] was 5 (Herbicidal effect/phytotoxicity was 90% or greater) and the “Herbicidal effect Echinochloa oryzicola” value [9] was 5 (Herbicidal effect/phytotoxicity was 90% or greater). For the same compound, the “Phytotoxicity Corn” value (corn [13]) was 2 (Herbicidal effect/phytotoxicity was 30% to 50%).

With `COCOc1cc(-c2c(Cl)n3n(c2=O)CCCC3)c(F)cc1F` [Example 1-90] the “Herbicidal effect Amaranthus viridis” value [10] was 5 (Herbicidal effect/phytotoxicity was 90% or greater), the “Herbicidal effect Abutilon theophrast” value [11] was 5 (Herbicidal effect/phytotoxicity was 90% or greater) and the “Herbicidal effect Chenopodium album” value [12] was 5 (Herbicidal effect/phytotoxicity was 90% or greater). The “Herbicidal effect Eleocharis acicularis” value [4] was 5 (Herbicidal effect/phytotoxicity was 90% or greater), the “Herbicidal effect Broadleaf weed” value [5] was 5 (Herbicidal effect/phytotoxicity was 90% or greater) and the “Herbicidal effect Cyperus difformis” value [6] was 5 (Herbicidal effect/phytotoxicity was 90% or greater). The “Herbicidal effect Monochoria vaginalis” value [7] was 5 (Herbicidal effect/phytotoxicity was 90% or greater), the “Herbicidal effect Scirpus juncoides” value [8] was 5 (Herbicidal effect/phytotoxicity was 90% or greater) and the “Herbicidal effect Echinochloa oryzicola” value [9] was 5 (Herbicidal effect/phytotoxicity was 90% or greater). The “Phytotoxicity Corn” value (corn [13]) was 3 (Herbicidal effect/phytotoxicity was 50% to 70%).
